Measurements reported in patent US10618916B2, “Heterocyclic compounds as immunomodulators” (Incyte Corporation, priority 2018, dated 2020).
pEC50, pIC50: −log10 of the molar value.

Assays:
[1] = target: PD-1/PD-L1 protein/protein interaction (recombinant human PD-L1 and human PD-1) (Homo sapiens (Human), UniProt Q9NZQ7); test: Homogeneous Time-Resolved Fluorescence (HTRF) PD-1/PD-L1 binding assay
Outline: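 Human PD-L1 (19-238, C-His; 10 nM final) and PD-1 (25-167, C-Fc; 3 nM final) preincubated 40 min with inhibitor in PBS pH 7.4, 0.05% Tween-20, 0.1% BSA, 1% DMSO, 25 °C. Eu-anti-human IgG (1 nM) and anti-His-APC (20 nM) added for 60 min; 665/620 nm ratio; IC50 from percent-control curves.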

[2] = system: U2OS/PD-L1 cells and Jurkat-PD-1-SHP cells; test: Src homology region 2 domain-containing phosphatase (SHP) assay; type: cell-based; settings: Homo sapiens, U2OS
Outline: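 U2OS/PD-L1 and Jurkat-PD-1-SHP cells (5000 each per well) were co-incubated with compound for 2 h at 37 °C in RPMI1640 with 1% FBS, 0.05% DMSO final. PathHunter chemiluminescence was read after 1 h at room temperature, and IC50 was fitted from percent of DMSO-control activity.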

[3] = system: PD-L1 aAPC/CHO-K1 cells and Jurkat-PD-1-NFAT effector cells; test: Nuclear factor of activated T-cells (NFAT) assay; type: cell-based; settings: Cricetulus griseus, CHO-K1
Outline: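 CHO-K1 cells expressing PD-L1 aAPC were co-cultured with Jurkat-PD-1-NFAT effector cells in RPMI 1640 with 1% FBS and compound (0.4% DMSO; top concentration 2 μM) for 24 h at 37 °C. Bio-Glo luminescence was read, fold induction normalised to DMSO wells, and EC50 fitted from percent of control compound activity.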

[4] = target: PD-L1 (Homo sapiens (Human), UniProt Q9NZQ7); test: PD-L1 whole blood internalization assay; type: cell-based; settings: 24 HR, PD-L1 expression on CD14+ cells, human interferon γ
Sequence of PD-L1 (Q9NZQ7 19-290): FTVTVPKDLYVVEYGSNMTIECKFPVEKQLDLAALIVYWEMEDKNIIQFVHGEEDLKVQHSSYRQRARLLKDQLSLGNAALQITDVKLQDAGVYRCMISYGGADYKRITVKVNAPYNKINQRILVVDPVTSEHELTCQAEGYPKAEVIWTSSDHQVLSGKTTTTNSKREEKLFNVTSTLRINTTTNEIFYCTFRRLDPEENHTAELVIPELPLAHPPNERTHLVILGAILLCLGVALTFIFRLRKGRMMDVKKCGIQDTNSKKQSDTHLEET

Sequence of PD-1/PD-L1 protein/protein interaction (recombinant human PD-L1 and human PD-1) (Q9NZQ7 19-238): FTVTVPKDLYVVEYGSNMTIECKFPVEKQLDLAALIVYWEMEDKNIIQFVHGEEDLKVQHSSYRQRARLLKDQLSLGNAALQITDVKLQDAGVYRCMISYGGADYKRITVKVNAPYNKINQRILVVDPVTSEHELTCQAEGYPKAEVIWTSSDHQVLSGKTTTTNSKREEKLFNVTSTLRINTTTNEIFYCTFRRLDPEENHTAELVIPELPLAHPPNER

Work on `Cc1c(NC(=O)c2nc3c(n2C)CCN(CCC24CCC(C(=O)O)(CC2)C4)C3)cccc1-c1cccc(NC(=O)c2nc3c(n2C)CCN(C2CCN(C(N)=O)CC2)C3)c1Cl` [Example 40, 4-(2-(2-((3′-(5-(1-carbamoylpiperidin-4-yl)-1-methyl-4,5,6,7-tetrahydro-1H-imidazo[4,5-c]pyridine-2-carboxamido)-2′-chloro-2-methyl[1,1′-biphenyl]-3-yl)carbamoyl)-1-methyl-1,4,6,7-tetrahydro-5H-imidazo[4,5-c]pyridin-5-yl)ethyl)bicyclo[2.2.1]heptane-1-carboxylic acid] yielded a pIC50 [1] of no less than 8.30, a pIC50 [2] of no less than 8.00 and a pEC50 [3] of 7.00 to 8.00. It also gave a pIC50 [4] of 7.00 to 8.00.

In the case of `Cc1c(NC(=O)c2nc3c(n2C)CCN(CCC24CCC(C(=O)O)(CC2)C4)C3)cccc1-c1cccc(NC(=O)c2nc3c(n2C)CCN(C2CCOCC2)C3)c1Cl` [Example 38, 4-(2-(2-((2′-chloro-2-methyl-3′-(1-methyl-5-(tetrahydro-2H-pyran-4-yl)-4,5,6,7-tetrahydro-1H-imidazo[4,5-c]pyridine-2-carboxamido)-[1,1′-biphenyl]-3-yl)carbamoyl)-1-methyl-1,4,6,7-tetrahydro-5H-imidazo[4,5-c]pyridin-5-yl)ethyl)bicyclo[2.2.1]heptane-1-carboxylic acid], the pIC50 [1] was no less than 8.30, the pIC50 [2] was no less than 8.00 and the pEC50 [3] was 7.00 to 8.00. For the same molecule, the pIC50 [4] was 7.00 to 8.00.

`Cc1c(NC(=O)c2nc3c(n2C)CCN(C2CCN(C(N)=O)CC2)C3)cccc1-c1cccc(NC(=O)c2nc3c(n2C)CCN(CCC24CCC(C(=O)O)(CC2)C4)C3)c1Cl` [Example 30, 4-(2-(2-((3′-(5-(1-carbamoylpiperidin-4-yl)-1-methyl-4,5,6,7-tetrahydro-1H-imidazo[4,5-c]pyridine-2-carboxamido)-2-chloro-2′-methyl-[1,1′-biphenyl]-3-yl)carbamoyl)-1-methyl-1,4,6,7-tetrahydro-5H-imidazo[4,5-c]pyridin-5-yl)ethyl)bicyclo[2.2.1]heptane-1-carboxylic acid] was tested, and the pIC50 [1] was no less than 8.30, the pIC50 [2] was no less than 8.00 and the pEC50 [3] was 7.00 to 8.00. The pIC50 [4] was 7.00 to 8.00.

Molecule `Cn1c(C(=O)Nc2cccc(-c3cccc(NC(=O)c4nc5c(n4C)CCN(CCC46CCC(C(=O)O)(CC4)C6)C5)c3Cl)c2Cl)nc2c1CCN(CCC13CCC(C(=O)O)(CC1)C3)C2` [Example 17, 4,4′-(((((2,2′-dichloro-[1,1′-biphenyl]-3,3′-diyl)bis(azanediyl))bis(carbonyl))bis(1-methyl-1,4,6,7-tetrahydro-5H-imidazo[4,5-c]pyridine-2,5-diyl))bis(ethane-2,1-diyl))bis(bicyclo[2.2.1]heptane-1-carboxylic acid)] has a pIC50 [1] of no less than 8.30, a pIC50 [2] of no less than 8.00 and a pEC50 [3] of 7.00 to 8.00. For the same molecule, the pIC50 [4] was 7.00 to 8.00.
